Measured values taken from the supplement of paper PMC11451515.

How the values were obtained:
Experiment in all cases: AUC of viability dose-response curve (% viability x log10 dose units); higher = less sensitive
Conditions in all cases: 48 h
P12-Ichikawa = tested on: P12-Ichikawa
In short: (§1)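 Leukemia cells adapted to each medium were seeded in 1536-well plates (500 or 1000 cells/well). They were dosed with library compounds in DMSO at 11 threefold doses, 47 μM to 0.79 nM, for 48 h at 37°C. CellTiter-Glo One luminescence was normalised per plate to DMSO and cell-free wells. Area under the curve was integrated by trapezoidal rule over log10 doses on a four-parameter log-logistic fit; curves exceeding full viability were scaled and curves failing quality control removed.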

NOMO1 = tested on: NOMO1
In short: as §1

SEM cells = tested on: SEM cells
In short: as §1

[1] = RPMI 5 mM glucose + 10% dialyzed FBS

Row | Compound | AUC of viability dose-response curve (P12-Ichikawa; HPLM + 10% dialyzed FBS) | AUC of viability dose-response curve (P12-Ichikawa; RPMI 5 mM glucose + 10% FBS) | AUC of viability dose-response curve (P12-Ichikawa; [1]) | AUC of viability dose-response curve (NOMO1; HPLM + 10% dialyzed FBS) | AUC of viability dose-response curve (NOMO1; RPMI 5 mM glucose + 10% FBS) | AUC of viability dose-response curve (NOMO1; [1]) | AUC of viability dose-response curve (SEM cells; HPLM + 10% dialyzed FBS) | AUC of viability dose-response curve (SEM cells; RPMI 5 mM glucose + 10% FBS) | AUC of viability dose-response curve (SEM cells; [1])
1 | CC1(C)CCC(=C(CN2CCN(CC2)C3=CC=C(C=C3)C(=O)N[S+]([O-])(=O)C4=CC(=C(N[C@H](CCN5CCOCC5)CSC6=CC=CC=C6)C=C4)[S+]([O-])(=O)C(F)(F)F)\C1)/C7=CC=C(Cl)C=C7 | 235 | 240 | 259 | 357 | 332 | 291 | 216 | 197 | 197
2 | C[S+](=O)([O-])N(Cc1ccco1)CC(O)Cn1c2ccccc2c2ccccc21 (stereo not given) | 436 | 414 | 409 | 421 | 415 | 417 | 407 | 396 | 381
3 | O=C(/C=C/c1cccc([S+](=O)([O-])Nc2ccccc2)c1)NO | 362 | 352 | 365 | 396 | 402 | 397 | 284 | 277 | 289
4 | OC[C@H](Cc1ccccc1)Nc1nc(Oc2ccc3c(c2)CCC3)nc2c1ncn2Cc1ccc(-c2ccccc2)cc1 | 454 | 431 | 418 | 463 | 434 | 458 | 455 | 428 | 432
5 | CC(=O)OCC(=O)[C@@]12\N=C(C)/O[C@@H]1C[C@H]3[C@@H]4CCC/5=C/C(=O)/C=C\[C@]5(C)[C@H]4[C@@H](O)C[C@]23C | 436 | 427 | 415 | 470 | 468 | 462 | 404 | 432 | 444
6 | CC1=C(C=CC=C1)N2\C(=N/C3=C(C(=CC=C3)C)C2=O)C[N]4N=CC5=C4N=CN=C5N | 368 | 366 | 377 | 329 | 307 | 341 | 469 | 470 | 471
7 | COC[C@@H](NC(C)=O)C(=O)NCc1ccccc1 | 453 | 465 | 466 | 457 | 467 | 466 | 466 | 449 | 456
8 | CCOC(=O)N1CCN(/[N+]([O-])=N/Oc2ccc([N+](=O)[O-])cc2[N+](=O)[O-])CC1 | 447 | 425 | 398 | 462 | 429 | 412 | 303 | 324 | 337
9 | C\C1=C\C(=O)C2=C(C=CC=C2)C1=O | 465 | 440 | 468 | 466 | 460 | 456 | 464 | 458 | 435
10 | O=C(CO)N1CCC(c2n[nH]c(-c3ccc(Cl)cc3)c2-c2ccncn2)CC1 | 441 | 420 | 423 | 438 | 453 | 446 | 411 | 403 | 404
11 | Cc1cccc(C)c1OCC(=O)N[C@@H](Cc1ccccc1)[C@@H](O)C[C@H](Cc1ccccc1)NC(=O)[C@H](C(C)C)N1CCCNC1=O | 443 | 448 | 414 | 443 | 418 | 422 | 391 | 435 | 435
12 | CC1(C)C(=O)N(CCN2CCC(C(=O)c3ccc(F)cc3)CC2)c2ccccc21 | 469 | 472 | 462 | 468 | 465 | 459 | 471 | 455 | 471
13 | CCC[C@H](N[C@@H](C)C(=O)N1[C@H](C(=O)O)C[C@@H]2CCCC[C@@H]21)C(=O)OCC | 454 | 433 | 438 | 394 | 439 | 399 | 469 | 469 | 466
14 | CCc1c(C(=O)C(N)=O)c2c(OCC(=O)O)cccc2n1Cc1ccccc1 | 471 | 460 | 452 | 442 | 465 | 463 | 462 | 464 | 461
15 | Oc1ccc(C2CCN(c3ccnc4ccccc34)CC2)cc1O | 427 | 418 | 408 | 445 | 457 | 467 | 399 | 386 | 404
16 | CC(C)Nc1cc(C(F)(F)F)cc2nc(NC(=O)c3cccnc3)nn12 | 334 | 364 | 350 | 406 | 394 | 386 | 340 | 323 | 329
17 | O=C1Nc2ccc(Cl)cc2[C@@](C#CC2CC2)(C(F)(F)F)O1 | 430 | 395 | 378 | 381 | 364 | 437 | 413 | 389 | 375
18 | C[C@@H]1CN[C@H]2[C@@H](C)[C@@]\3(CC[C@H]\4[C@@H]5C/C=C6/C[C@@H](O)CC[C@]6(C)[C@H]5CC4=C3C)O[C@@H]2C1 | 454 | 441 | 449 | 449 | 460 | 451 | 460 | 462 | 469
19 | CCCCCCCc1ccc(CCc2cccc(O)c2C(=O)O)cc1 | 445 | 434 | 435 | 472 | 445 | 441 | 474 | 474 | 461
20 | O=C1Nc2cc(Br)ccc2/C1=C1/Nc2ccccc2/C1=N\O | 365 | 377 | 382 | 366 | 391 | 401 | 296 | 299 | 290
